Experimental data taken from patent US20230391786A1, “cGAS INHIBITORS” (Eli Lilly and Company, priority 2022, published 2023).
Read-outs that look alike come from different tables or passages of the source.

Assays:
recombinant human cGAS = recombinant human cGAS (Homo sapiens (Human), UniProt Q8N884); test: In vitro inhibition assay of cGAS activity (cGAMP production, RapidFire mass spectrometry); type: biochemical; settings: 10 nM recombinant human cGAS, 60 nM 75-bp dsDNA, ATP, GTP, room temperature 3 hours, read-out: IC50 (μM), In vitro inhibition assay for Compounds 95-348
Chain of recombinant human cGAS (Q8N884 whole entry): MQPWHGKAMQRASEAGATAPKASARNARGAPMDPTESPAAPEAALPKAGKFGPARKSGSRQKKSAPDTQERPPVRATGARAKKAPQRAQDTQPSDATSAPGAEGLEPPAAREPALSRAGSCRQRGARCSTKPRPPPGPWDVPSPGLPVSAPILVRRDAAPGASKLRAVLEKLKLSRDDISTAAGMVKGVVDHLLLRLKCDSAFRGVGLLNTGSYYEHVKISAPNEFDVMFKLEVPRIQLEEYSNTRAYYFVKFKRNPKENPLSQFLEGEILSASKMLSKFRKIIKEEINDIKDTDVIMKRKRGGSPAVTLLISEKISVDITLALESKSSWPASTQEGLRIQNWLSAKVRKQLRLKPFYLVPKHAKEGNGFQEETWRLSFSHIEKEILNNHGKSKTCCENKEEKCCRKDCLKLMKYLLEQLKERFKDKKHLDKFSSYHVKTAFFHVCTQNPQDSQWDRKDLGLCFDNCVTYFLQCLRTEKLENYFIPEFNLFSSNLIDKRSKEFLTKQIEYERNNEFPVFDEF
Method in brief: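 Product cGAMP was quantified by RapidFire MS against a difluoro-cGAMP internal standard after a formic acid quench. The reaction contained 10 nM recombinant full-length human cGAS, 75-bp dsDNA (60 nM), ATP and GTP (50 μM) and ran for 3 h at room temperature. IC50 values came from 4-parameter nonlinear regression.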

[1] = tested on: cGAS activity in THP1 cells (IFNb as marker); test: Cellular assay to measure cGAS activity (IFNb production in PMA-differentiated THP1 cells stimulated by RDG-Adenovirus-GFP); type: cell-based, human; settings: PMA differentiated, RDG-Adenovirus-GFP 1000 MOI, IFNb AlphaLISA, overnight incubation, read-out: IC50 (μM), Cellular assay for Compounds 95-348
Method in brief: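 The readout is secreted IFNb measured by AlphaLISA after overnight compound exposure. THP1 cells, differentiated with PMA for 24 h and rested overnight, were infected with RDG-Adenovirus-GFP (1000 MOI, 4 h) before compounds were added; IC50 came from a 4-parameter logistic fit of inhibition against log concentration.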

[2] = Homo sapiens, THP-1, THP1 cells

SMILES	IC50 (recombinant human cGAS) [µM]	IC50 [1, 2] [µM]	IC50 ([1]; THP1 cells) [µM]
O=C(Cn1cnnc1)NCc1[nH]c2c(Cl)c(Cl)ccc2c1-c1cn[nH]c1 [Example 103, N-((6,7-Dichloro-3-(1H-pyrazol-4-yl)-1H-indol-2-yl)methyl)-2-(4H-1,2,4-triazol-4-yl)acetamide]	0.051	> 10	–
O=C(NC1CCc2c(-c3cn[nH]c3)c3ccc(Cl)c(Cl)c3n2C1)C1CCOCC1 (centres unmarked) [Example 96, N-[3,4-Dichloro-10-(1H-pyrazol-4-yl)-6,7,8,9-tetrahydropyrido[1,2-a]indol-7-yl]tetrahydropyran-4-carboxamide]	0.0449	2.43	–
Clc1ccc2c(-c3cn[nH]c3)c(-c3nnco3)[nH]c2c1Cl [Example 156, 2-[6,7-Dichloro-3-(1H-pyrazol-4-yl)-1H-indol-2-yl]-1,3,4-oxadiazole]	0.0405	0.464	–
N#CCNc1cc(Cl)c(Cl)c2c1c(-c1cn[nH]c1)c1n2CCNC1=O [Example 135, 2-[[6,7-Dichloro-1-oxo-10-(1H-pyrazol-4-yl)-3,4-dihydro-2H-pyrazino[1,2-a]indol-9-yl]amino]acetonitrile]	0.0486	> 10	–
CC(=O)N[C@H]1Cc2c(-c3cn[nH]c3)c3c(NC(=O)C(F)F)cc(Cl)c(Cl)c3n2C1 [Example 244, (S)—N-(2-Acetamido-5,6-dichloro-9-(1H-pyrazol-4-yl)-2,3-dihydro-1H-pyrrolo[1,2-a]indol-8-yl)-2,2-difluoroacetamide]	0.0099	0.531	–
OCCCOc1cc(Cl)c(Cl)c2[nH]cc(-c3cn[nH]c3)c12 [Example 193, 3-[[6,7-Dichloro-3-(1H-pyrazol-4-yl)-1H-indol-4-yl]oxy]propan-1-ol]	0.00322	0.143	–
Clc1ccc2c(-c3cn[nH]c3)c(-c3nnc(C4CC4)o3)[nH]c2c1Cl [Example 160, 2-Cyclopropyl-5-(6,7-dichloro-3-(1H-pyrazol-4-yl)-1H-indol-2-yl)-1,3,4-oxadiazole]	0.0787	0.536	–
COCC(=O)N1CCn2c(c(-c3cn[nH]c3)c3c(OCC#N)cc(Cl)c(Cl)c32)C1 [Example 279, 2-((6,7-Dichloro-2-(2-methoxyacetyl)-10-(1H-pyrazol-4-yl)-1,2,3,4-tetrahydropyrazino[1,2-a]indol-9-yl)oxy)acetonitrile]	0.0072	0.74	–
O=C(CO)NC1CCc2c(-c3cn[nH]c3)c3ccc(Cl)c(Cl)c3n2C1 (centres unmarked) [Example 95, N-[3,4-Dichloro-10-(1H-pyrazol-4-yl)-6,7,8,9-tetrahydropyrido[1,2-a]indol-7-yl]-2-hydroxy-acetamide]	0.0159	2.06	–
F[C@H]1C[C@@H](Oc2cc(Cl)c(Cl)c3[nH]cc(-c4cn[nH]c4)c23)C1 [Example 126, 6,7-Dichloro-4-(cis-3-fluorocyclobutoxy)-3-(1H-pyrazol-4-yl)-1H-indole]	0.0358	1.45	–
CC(=O)Nc1cc(Cl)c(Cl)c2c1c(-c1cn[nH]c1)cn2-c1cn(CCO)nn1 [Example 199, N-[6,7-Dichloro-1-[1-(2-hydroxyethyl)triazol-4-yl]-3-(1H-pyrazol-4-yl)indol-4-yl]acetamide]	0.0519	2.66	–
C[C@H](O)C(=O)NCc1[nH]c2c(Cl)c(Cl)ccc2c1-c1cn[nH]c1 [Example 168, (S)—N-((6,7-Dichloro-3-(1H-pyrazol-4-yl)-1H-indol-2-yl)methyl)-2-hydroxypropanamide]	0.0463	1	–
CC(=O)Nc1cc(Cl)cc2c1c(-c1cn[nH]c1)cn2-c1cn(CCO)nn1 [Example 201, N-[6-Chloro-1-[1-(2-hydroxyethyl)triazol-4-yl]-3-(1H-pyrazol-4-yl)indol-4-yl]acetamide]	0.0777	4.23	–
OCCCNc1cc(Cl)c(F)c2c1c(-c1cn[nH]c1)cn2-c1cn(CCO)nn1 [Example 173, 3-[[6-Chloro-7-fluoro-1-[1-(2-hydroxyethyl)triazol-4-yl]-3-(1H-pyrazol-4-yl)indol-4-yl]amino]propan-1-ol]	0.0145	0.466	–
OCC(F)(F)CNc1cc(Cl)c(Cl)c2[nH]cc(-c3cn[nH]c3)c12 [Example 186, 3-[[6,7-Dichloro-3-(1H-pyrazol-4-yl)-1H-indol-4-yl]amino]-2,2-difluoro-propan-1-ol]	0.0127	0.909	–
FCCNc1cc(Cl)c(Cl)c2[nH]cc(-c3cn[nH]c3)c12 [Example 123, 6,7-Dichloro-N-(2-fluoroethyl)-3-(1H-pyrazol-4-yl)-1H-indol-4-amine]	0.00491	0.547	–
CC(=O)NC1CCCn2c1c(-c1cn[nH]c1)c1ccc(Cl)c(Cl)c12 (centres unmarked) [Example 116, N-(3,4-Dichloro-10-(1H-pyrazol-4-yl)-6,7,8,9-tetrahydropyrido[1,2-a]indol-9-yl)acetamide]	0.0217	5.23	–
F[C@H]1C[C@@H](Nc2cc(Cl)c(Cl)c3[nH]cc(-c4cn[nH]c4)c23)C1 [Example 208, Cis-6,7-Dichloro-N-(3-fluorocyclobutyl)-3-(1H-pyrazol-4-yl)-1H-indol-4-amine]	0.0416	2.54	–

More lines, in order of falling IC50 (recombinant human cGAS), values ahead:

IC50 (recombinant human cGAS) [µM]	IC50 [1, 2] [µM]	IC50 ([1]; THP1 cells) [µM]	SMILES
0.0812	3.2	–	O=C(NCc1[nH]c2c(Cl)c(Cl)ccc2c1-c1cn[nH]c1)C1(O)COC1 [Example 223, N-[[6,7-Dichloro-3-(1H-pyrazol-4-yl)-1H-indol-2-yl]methyl]-3-hydroxy-oxetane-3-carboxamide]
0.0613	> 10	–	CCC(=O)NC1CCn2c1c(-c1cn[nH]c1)c1ccc(Cl)c(Cl)c12 (centres unmarked) [Example 239, N-(5,6-Dichloro-9-(1H-pyrazol-4-yl)-2,3-dihydro-1H-pyrrolo[1,2-a]indol-1-yl)propionamide]
0.0474	4.63	–	NC1(C(=O)N2CCn3c(c(-c4cn[nH]c4)c4ccc(Cl)c(Cl)c43)C2)CCOCC1 [Example 147, (4-Aminotetrahydro-2H-pyran-4-yl)(6,7-dichloro-10-(1H-pyrazol-4-yl)-3,4-dihydropyrazino[1,2-a]indol-2(1H)-yl)methanone]
0.0472	–	9.35	OCCC1CCn2c1c(-c1cn[nH]c1)c1ccc(Cl)c(Cl)c12 (single isomer, unassigned; isomer 2) [Example 243, 2-(5,6-Dichloro-9-(1H-pyrazol-4-yl)-2,3-dihydro-1H-pyrrolo[1,2-a]indol-1-yl)ethan-1-ol isomer 2]
0.0385	5.87	–	CC(=O)N1CCn2c(c(-c3cn[nH]c3)c3c(OCC(N)=O)cc(Cl)c(Cl)c32)C1 [Example 268, 2-[[2-Acetyl-6,7-dichloro-10-(1H-pyrazol-4-yl)-3,4-dihydro-1H-pyrazino[1,2-a]indol-9-yl]oxy]acetamide]
0.0349	> 10	–	CN1CCC(C(=O)N2CCn3c(c(-c4cn[nH]c4)c4ccc(Cl)c(Cl)c43)C2)CC1=O (centres unmarked) [Example 303, 4-(6,7-Dichloro-10-(1H-pyrazol-4-yl)-1,2,3,4-tetrahydropyrazino[1,2-a]indole-2-carbonyl)-1-methylpiperidin-2-one]
0.0323	6.95	–	CN(C)C(=O)CC(=O)N1CCn2c(c(-c3cn[nH]c3)c3ccc(Cl)c(Cl)c32)C1 [Example 302, 3-(6,7-Dichloro-10-(1H-pyrazol-4-yl)-3,4-dihydropyrazino[1,2-a]indol-2(1H)-yl)-N,N-dimethyl-3-oxopropanamide]
0.0303	3.73	–	N#CCOc1cc(Cl)c(Cl)c2c1c(-c1cn[nH]c1)c1n2CCN(C(=O)CN2CCOCC2)C1 [Example 289, 2-((6,7-Dichloro-2-(2-morpholinoacetyl)-10-(1H-pyrazol-4-yl)-1,2,3,4-tetrahydropyrazino[1,2-a]indol-9-yl)oxy)acetonitrile]
0.019	> 10	–	Sc1nnc(-c2[nH]c3c(Cl)c(Cl)ccc3c2-c2cn[nH]c2)[nH]1 [Example 159, 5-[6,7-Dichloro-3-(1H-pyrazol-4-yl)-1H-indol-2-yl]-4H-1,2,4-triazole-3-thiol]
0.0122	0.865	–	N#CCOc1cc(Cl)c(Cl)c2c1c(-c1cn[nH]c1)c1n2CCC1CO (centres unmarked) [Example 347, 2-((5,6-Dichloro-1-(hydroxymethyl)-9-(1H-pyrazol-4-yl)-2,3-dihydro-1H-pyrrolo[1,2-a]indol-8-yl)oxy)acetonitrile]
0.00893	1.06	–	N#CCOc1cc(Cl)c(Cl)c2c1c(-c1cn[nH]c1)cn2-c1cn(CCO)nn1 [Example 197, 22-[6,7-Dichloro-1-[1-(2-hydroxyethyl)triazol-4-yl]-3-(1H-pyrazol-4-yl)indol-4-yl]oxyacetonitrile]
0.00695	0.365	–	OCCCOc1cc(Cl)c(Cl)c2c1c(-c1cn[nH]c1)c1n2CC(O)CC1 (centres unmarked) [Example 348, 3,4-Dichloro-1-(3-hydroxypropoxy)-10-(1H-pyrazol-4-yl)-6,7,8,9-tetrahydropyrido[1,2-a]indol-7-ol]
0.00677	0.374	–	Cc1nnc(N2CCn3c(c(-c4cn[nH]c4)c4c(OCC#N)cc(Cl)c(Cl)c43)C2)s1 [Example 203, 2-((6,7-Dichloro-2-(5-methyl-1,3,4-thiadiazol-2-yl)-10-(1H-pyrazol-4-yl)-1,2,3,4-tetrahydropyrazino[1,2-a]indol-9-yl)oxy)acetonitrile]
